Where a name gives a salt, the structure may show the parent alone.
biological target: T1, human histamine H4 receptor (Homo sapiens, UniProt Q9H3N8); assay: Binding Assay on Recombinant Human Histamine H4 Receptor; settings: not given
T1 construct: expressed in transfected cells; host or cells: SK-N-MC cells or COS7 cells, transiently transfected; cell membranes used
Method: Binding Assay on Recombinant Human Histamine H4 Receptor
SK-N-MC cells or COS7 cells were transiently transfected with pH4R and grown in 150 cm^2 tissue culture dishes. Cells were washed with saline solution, scraped with a cell scraper and collected by centrifugation (1000 rpm, 5 min). Cell membranes were prepared by homogenization of the cell pellet in 20 mM Tris-HCl with a polytron tissue homogenizer for 10 sec at high speed. Homogenate was centrifuged at 1000 rpm for 5 min at 4° C. […] The final pellet was resuspended in 50 mM Tris-HCl. Cell membranes were incubated with ^3H-histamine (5-70 nM) in the presence or absence of excess histamine (10,000 nM). […] Membranes were harvested by rapid filtration over Whatman GF/C filters and washed 4 times with ice-cold 50 mM Tris HCl. Filters were then dried, mixed with scintillant and counted for radioactivity. SK-N-MC or COS7 cells expressing human histamine H4 receptor were used to measure the affinity of binding of other compounds and their ability to displace ^3H-ligand binding by incubating the above-described reaction in the presence of various concentrations of inhibitor or compound to be tested.

Row | Compound | Ki
1 | COc1ccc2oc3c(N4C[C@H]5CCN[C@H]5C4)nc(N)nc3c2c1 (relative stereo) [Example 114, (cis)-4-(Hexahydro-pyrrolo[3,4-b]pyrrol-5-yl)-8-methoxy-benzo[4,5]furo[3,2-d]pyrimidin-2-ylamine trifluoroacetic acid salt] | 91 nM
2 | Nc1nc(N2CC3CCCNC3C2)c2oc3ccc(Cl)cc3c2n1 (centres unmarked) [Example 9, 8-Chloro-4-(octahydro-pyrrolo[3,4-b]pyridin-6-yl)-benzo[4,5]furo[3,2-d]pyrimidin-2-ylamine] | 2.1 nM
3 | Nc1nc(N2C[C@@H]3C[C@H]2CN3)c2oc3ccc(Cl)cc3c2n1 [Example 11, (S,S)-8-Chloro-4-(2,5-diaza-bicyclo[2.2.1]hept-2-yl)-benzo[4,5]furo[3,2-d]pyrimidin-2-ylamine] | 25 nM
4 | Nc1nc(N2CCN3CCCC3C2)c2oc3ccc(Br)cc3c2n1 (centres unmarked) [Example 20, 8-Bromo-4-(hexahydro-pyrrolo[1,2-a]pyrazin-2-yl)-benzo[4,5]furo[3,2-d]pyrimidin-2-ylamine trifluoroacetic acid salt] | 4.7 nM

same assay, conditions: competition binding with 3H-histamine (5 nM), membranes of SK-N-MC or COS7 cells expressing human H4 receptor; Cheng-Prusoff, KD 5 nM; average of results obtained; read-out: Ki

Row | Compound | Ki
5 | Nc1nc(N2CC[C@@H]3CNC[C@@H]32)c2oc3ccc(Cl)cc3c2n1 (relative stereo) [Example 95, (cis)-8-Chloro-4-(hexahydro-pyrrolo[3,4-b]pyrrol-1-yl)-benzo[4,5]furo[3,2-d]pyrimidin-2-ylamine trifluoroacetic acid salt] | 140 nM
6 | CN1CCN(c2nc(N)nc3c2oc2ccc(Cl)cc23)CC1 [Example 1, 8-Chloro-4-(4-methyl-piperazin-1-yl)-benzo[4,5]furo[3,2-d]pyrimidin-2-ylamine] | 0.14 nM
7 | Nc1nc(N2CC3CCCNC3C2)c2oc3c(Cl)cc(Cl)cc3c2n1 (centres unmarked) [Example 2, 6,8-Dichloro-4-(octahydro-pyrrolo[3,4-b]pyridin-6-yl)-benzo[4,5]furo[3,2-d]pyrimidin-2-ylamine trifluoroacetic acid salt] | 7.1 nM
8 | CC(C)N1CCCN(c2nc(N)nc3c2oc2ccc(Cl)cc23)CC1 [Example 3, 8-Chloro-4-(4-isopropyl-[1,4]diazepan-1-yl)-benzo[4,5]furo[3,2-d]pyrimidin-2-ylamine trifluoroacetic acid salt] | 76 nM
9 | Nc1nc(N2CCC(N)C2)c2oc3c(Cl)cc(Cl)cc3c2n1 (centres unmarked) [Example 4, 4-(3-Amino-pyrrolidin-1-yl)-6,8-dichloro-benzo[4,5]furo[3,2-d]pyrimidin-2-ylamine trifluoroacetic acid salt] | 31 nM
10 | CN[C@@H]1CCN(c2nc(N)nc3c2oc2c(Cl)cc(Cl)cc23)C1 [Example 5, (R)-6,8-Dichloro-4-(3-methylamino-pyrrolidin-1-yl)-benzo[4,5]furo[3,2-d]pyrimidin-2-ylamine trifluoroacetic acid salt] | 1.9 nM
11 | CN[C@@H]1CCN(c2nc(N)nc3c2oc2ccccc23)C1 [Example 6, (R)-4-(3-Methylamino-pyrrolidin-1-yl)-benzo[4,5]furo[3,2-d]pyrimidin-2-ylamine citric acid salt] | 3.4 nM
12 | Nc1nc(N2CCCNCC2)c2oc3ccc(Cl)cc3c2n1 [Example 7, 8-Chloro-4-[1,4]diazepan-1-yl-benzo[4,5]furo[3,2-d]pyrimidin-2-ylamine trifluoroacetic acid salt] | 1.1 nM
13 | Nc1nc(N2CCN3CCCCC3C2)c2oc3ccc(Cl)cc3c2n1 (centres unmarked) [Example 8, 8-Chloro-4-(octahydro-pyrido[1,2-a]pyrazin-2-yl)-benzo[4,5]furo[3,2-d]pyrimidin-2-ylamine] | 16 nM
14 | CN1CCCN(c2nc(N)nc3c2oc2ccc(Cl)cc23)CC1 [Example 10, 8-Chloro-4-(4-methyl-[1,4]diazepan-1-yl)-benzo[4,5]furo[3,2-d]pyrimidin-2-ylamine] | 0.74 nM
15 | CNC1CCN(c2nc(N)nc3c2oc2ccc(Cl)cc23)C1 (centres unmarked) [Example 12, 8-Chloro-4-(3-methylamino-pyrrolidin-1-yl)-benzo[4,5]furo[3,2-d]pyrimidin-2-ylamine] | 0.86 nM
16 | Nc1nc(N2CCC[C@H](N)C2)c2oc3ccc(Cl)cc3c2n1 [Example 13, (S)-4-(3-Amino-piperidin-1-yl)-8-chloro-benzo[4,5]furo[3,2-d]pyrimidin-2-ylamine trifluoroacetic acid salt] | 9.6 nM
17 | Nc1nc(N2CCNCC2)c2oc3ccc(Cl)cc3c2n1 [Example 14, 8-Chloro-4-piperazin-1-yl-benzo[4,5]furo[3,2-d]pyrimidin-2-ylamine trifluoroacetic acid salt] | 1.1 nM
18 | CN(C)C1CCN(c2nc(N)nc3c2oc2ccc(Cl)cc23)C1 (centres unmarked) [Example 15, 8-Chloro-4-(3-dimethylamino-pyrrolidin-1-yl)-benzo[4,5]furo[3,2-d]pyrimidin-2-ylamine trifluoroacetic acid salt] | 6.2 nM
19 | Nc1nc(N2CCC(N)C2)c2oc3ccc(Cl)cc3c2n1 (centres unmarked) [Example 16, 4-(3-Amino-pyrrolidin-1-yl)-8-chloro-benzo[4,5]furo[3,2-d]pyrimidin-2-ylamine trifluoroacetic acid salt] | 2.3 nM
20 | CN[C@H]1CCN(c2nc(N)nc3c2oc2ccc(Cl)cc23)C1 [Example 17, (S)-8-Chloro-4-(3-methylamino-pyrrolidin-1-yl)-benzo[4,5]furo[3,2-d]pyrimidin-2-ylamine] | 2.1 nM
21 | CN[C@@H]1CCN(c2nc(N)nc3c2oc2ccc(Cl)cc23)C1 [Example 18, (R)-8-Chloro-4-(3-methylamino-pyrrolidin-1-yl)-benzo[4,5]furo[3,2-d]pyrimidin-2-ylamine] | 0.42 nM
22 | CN[C@@H]1CCN(c2nc(N)nc3c2oc2ccc(Br)cc23)C1 [Example 19, (R)-8-Bromo-4-(3-methylamino-pyrrolidin-1-yl)-benzo[4,5]furo[3,2-d]pyrimidin-2-ylamine trifluoroacetic acid salt] | 0.74 nM
23 | Nc1nc(N2CCC(N)C2)c2oc3ccccc3c2n1 (centres unmarked) [Example 21, 4-(3-Amino-pyrrolidin-1-yl)-benzo[4,5]furo[3,2-d]pyrimidin-2-ylamine trifluoroacetic acid salt] | 5.7 nM
24 | Nc1nc(N2CC3CNCC3C2)c2oc3ccc(Cl)cc3c2n1 (centres unmarked) [Example 27, 8-Chloro-4-(hexahydro-pyrrolo[3,4-c]pyrrol-2-yl)-benzo[4,5]furo[3,2-d]pyrimidin-2-ylamine trifluoroacetic acid salt] | 110 nM

Next, values leading:

Row | Ki | Compound
25 | > 10000 nM | CC1CN(c2nc(N)nc3c2oc2ccc(Cl)cc23)CC(C)N1 (mixture of isomers) [Example 128, 8-Chloro-4-(3,5-dimethyl-piperazin-1-yl)-benzo[4,5]furo[3,2-d]pyrimidin-2-ylamine trifluoroacetic acid salt]
26 | 14 nM | COc1ccc2oc3c(N4C[C@H]5CCCN[C@H]5C4)nc(N)nc3c2c1 (relative stereo) [Example 105, (cis)-8-Methoxy-4-(octahydro-pyrrolo[3,4-b]pyridin-6-yl)-benzo[4,5]furo[3,2-d]pyrimidin-2-ylamine trifluoroacetic acid salt]
27 | 930 nM | OCCNc1nc(N2C[C@H]3CCCN[C@H]3C2)c2oc3ccc(Cl)cc3c2n1 (relative stereo) [Example 117, (cis)-2-[8-Chloro-4-(octahydro-pyrrolo[3,4-b]pyridin-6-yl)-benzo[4,5]furo[3,2-d]pyrimidin-2-ylamino]-ethanol]
28 | 12 nM | CN(C)[C@@H]1CCN(c2nc(N)nc3c2oc2ccccc23)C1 [Example 22, (R)-4-(3-Dimethylamino-pyrrolidin-1-yl)-benzo[4,5]furo[3,2-d]pyrimidin-2-ylamine trifluoroacetic acid salt]
29 | 21 nM | Nc1nc(N2CCNCC2)c2oc3ccccc3c2n1 [Example 23, 4-piperazin-1-yl-benzo[4,5]furo[3,2-d]pyrimidin-2-ylamine trifluoroacetic acid salt]
30 | 5.5 nM | CN(C)[C@@H]1CCN(c2nc(N)nc3c2oc2ccc(Cl)cc23)C1 [Example 24, (R)-8-Chloro-4-(3-dimethylamino-pyrrolidin-1-yl)-benzo[4,5]furo[3,2-d]pyrimidin-2-ylamine trifluoroacetic acid salt]
31 | 2.4 nM | Nc1nc(N2CC[C@@H](N)C2)c2oc3ccc(Cl)cc3c2n1 [Example 25, (R)-4-(3-Amino-pyrrolidin-1-yl)-8-chloro-benzo[4,5]furo[3,2-d]pyrimidin-2-ylamine trifluoroacetic acid salt]
32 | 90 nM | NC[C@@H]1CCN(c2nc(N)nc3c2oc2ccc(Cl)cc23)C1 [Example 26, (S)-4-(3-Aminomethyl-pyrrolidin-1-yl)-8-chloro-benzo[4,5]furo[3,2-d]pyrimidin-2-ylamine trifluoroacetic acid salt]
33 | 110 nM | Nc1nc(N2CCC[C@@H](N)C2)c2oc3ccc(Cl)cc3c2n1 [Example 28, (R)-4-(3-Amino-piperidin-1-yl)-8-chloro-benzo[4,5]furo[3,2-d]pyrimidin-2-ylamine trifluoroacetic acid salt]
34 | 140 nM | NCC1CCN(c2nc(N)nc3c2oc2ccc(Cl)cc23)C1 (centres unmarked) [Example 29, 4-(3-Aminomethyl-pyrrolidin-1-yl)-8-chloro-benzo[4,5]furo[3,2-d]pyrimidin-2-ylamine trifluoroacetic acid salt]
35 | 140 nM | NC[C@H]1CCN(c2nc(N)nc3c2oc2ccc(Cl)cc23)C1 [Example 30, (R)-4-(3-Aminomethyl-pyrrolidin-1-yl)-8-chloro-benzo[4,5]furo[3,2-d]pyrimidin-2-ylamine trifluoroacetic acid salt]
